One block for each compound: values may come before it.
Columns and labels:
[1] = system: panel of 1,151 cancer cell lines; conditions: in 52% of 1,151 cancer cell lines; cited from earlier work
[2] = target: T1, CDK12 wt/CycK (Homo sapiens, UniProt Q9NYV4); assay: Radiometric protein kinase assay (33PanQinase), assay condition 2, thiol containing conditions; format: biochemical; conditions: thiol containing conditions (1.2 mM DTT), ATP 0.3 μM
T1 construct: either as full-length or enzymatically active fragments
Protocol: Example 1—Assay condition 2 (thiol containing conditions)
Objective: The IC50 profile of test compounds was determined using protein kinases. IC50 values were measured by testing 10 concentrations (1×10^−04M, 3×10^−05M, 1×10^−05M, 3×10^−06M, 1×10^−06M, 3×10^−07M, 1×10^−07M, 3×10^−08M, 1×10^−08M, and 3×10^−09M) of each compound in singlicate.
Test compounds: The compounds were provided as pre-weighed powders in vials. The compounds were dissolved to 1×10^−02M by adding DMSO. 100 μl of each of the resulting stock solutions were transferred into column 2 of four 96 well “master plates”
Prior to testing, the 1×10^−02M stock solutions in column 2 of the master plates were subjected to a serial, semi-logarithmic dilution using 100% DMSO as a solvent. […] Column 1 and 7 were filled with 100% DMSO as controls. Subsequently, 2×10 μl from each well of the serial diluted copy plates were aliquoted with a 96 channel pipettor into two identical sets of “compound dilution plates”.
In the process, 90 μl H2O were added to each well of a set of compound dilution plates. To minimize potential precipitation, the H2O was added to each plate only a few minutes before the transfer of the compound solutions into the assay plates. Each plate was shaken thoroughly, resulting in a “compound dilution plate/ 10% DMSO”.
For the assays, 5 μl solution from each well of the compound dilution plates/10% DMSO were transferred into the assay plates. The final volume of the assay was 50 μl. All compounds were tested at 10 final assay concentrations in the range from 1×10^−04M to 3×10^−09M, in singlicate. The final DMSO concentration in the reaction cocktails was 1% in all cases.
Recombinant protein kinases: All protein kinases were expressed in Sf9 insect cells or in E.coli as recombinant GST-fusion proteins or His-tagged proteins, either as full-length or enzymatically active fragments. All kinases were produced from human cDNAs and purified by either GSH-affinity chromatography or immobilized metal. Affinity tags were removed from a number of kinases during purification. The purity of the protein kinases was examined by SDS-PAGE/Coomassie staining, the identity was checked by mass spectroscopy.
Protein kinase assay: A radiometric protein kinase assay (^33PanQinase® Activity Assay) was used for measuring the kinase activity. All kinase assays were performed in 96-well FlashPlates™ from PerkinElmer (Boston, MA, USA) in a 50 μl reaction volume. The reaction cocktail was pipetted in four steps in the following order: • 20 μl of assay buffer (standard buffer) • 5μl of ATP solution (in H2O) • 5μl of test compound (in 10% DMSO) • 20 μl enzyme/substrate mix
The assay for all protein kinases contained 70 mM HEPES-NaOH pH 7.5, 3 mM MgCl2, 3 mM MnCl2, 3 μM Na-orthovanadate, 1.2 mM DTT, 50 μg/ml PEG20000, ATP (variable concentrations, corresponding to the apparent ATP-K. of the respective kinase), [γ-^33P]-ATP (approx. 9×10^05cpm per well), protein kinase, and substrate.
The following amounts of enzyme and substrate were used per well:
The reaction cocktails were incubated at 30° C. for 60 minutes. The reaction was stopped with 50 μl of 2% (v/v) H3PO4, plates were aspirated and washed two times with 200 μl 0.9% (w/v) NaCl. Incorporation of ^33Pi was determined with a microplate scintillation counter (Microbeta, Wallac). All assays were performed with a BeckmanCoulter/SAGIANTM Core System.
Evaluation of raw data: The median value of the counts in column 1 (n=8) of each assay plate was defined as “low control”. This value reflects unspecific binding of radioactivity to the plate in the absence of a protein kinase but in the presence of the substrate. The median value of the counts in column 7 of each assay plate (n=8) was taken as the “high control”, i.e. full activity in the absence of any inhibitor. The difference between high and low control was taken as 100% activity. […]

T1 sequence (Q9NYV4 whole entry, the tested form may be a part): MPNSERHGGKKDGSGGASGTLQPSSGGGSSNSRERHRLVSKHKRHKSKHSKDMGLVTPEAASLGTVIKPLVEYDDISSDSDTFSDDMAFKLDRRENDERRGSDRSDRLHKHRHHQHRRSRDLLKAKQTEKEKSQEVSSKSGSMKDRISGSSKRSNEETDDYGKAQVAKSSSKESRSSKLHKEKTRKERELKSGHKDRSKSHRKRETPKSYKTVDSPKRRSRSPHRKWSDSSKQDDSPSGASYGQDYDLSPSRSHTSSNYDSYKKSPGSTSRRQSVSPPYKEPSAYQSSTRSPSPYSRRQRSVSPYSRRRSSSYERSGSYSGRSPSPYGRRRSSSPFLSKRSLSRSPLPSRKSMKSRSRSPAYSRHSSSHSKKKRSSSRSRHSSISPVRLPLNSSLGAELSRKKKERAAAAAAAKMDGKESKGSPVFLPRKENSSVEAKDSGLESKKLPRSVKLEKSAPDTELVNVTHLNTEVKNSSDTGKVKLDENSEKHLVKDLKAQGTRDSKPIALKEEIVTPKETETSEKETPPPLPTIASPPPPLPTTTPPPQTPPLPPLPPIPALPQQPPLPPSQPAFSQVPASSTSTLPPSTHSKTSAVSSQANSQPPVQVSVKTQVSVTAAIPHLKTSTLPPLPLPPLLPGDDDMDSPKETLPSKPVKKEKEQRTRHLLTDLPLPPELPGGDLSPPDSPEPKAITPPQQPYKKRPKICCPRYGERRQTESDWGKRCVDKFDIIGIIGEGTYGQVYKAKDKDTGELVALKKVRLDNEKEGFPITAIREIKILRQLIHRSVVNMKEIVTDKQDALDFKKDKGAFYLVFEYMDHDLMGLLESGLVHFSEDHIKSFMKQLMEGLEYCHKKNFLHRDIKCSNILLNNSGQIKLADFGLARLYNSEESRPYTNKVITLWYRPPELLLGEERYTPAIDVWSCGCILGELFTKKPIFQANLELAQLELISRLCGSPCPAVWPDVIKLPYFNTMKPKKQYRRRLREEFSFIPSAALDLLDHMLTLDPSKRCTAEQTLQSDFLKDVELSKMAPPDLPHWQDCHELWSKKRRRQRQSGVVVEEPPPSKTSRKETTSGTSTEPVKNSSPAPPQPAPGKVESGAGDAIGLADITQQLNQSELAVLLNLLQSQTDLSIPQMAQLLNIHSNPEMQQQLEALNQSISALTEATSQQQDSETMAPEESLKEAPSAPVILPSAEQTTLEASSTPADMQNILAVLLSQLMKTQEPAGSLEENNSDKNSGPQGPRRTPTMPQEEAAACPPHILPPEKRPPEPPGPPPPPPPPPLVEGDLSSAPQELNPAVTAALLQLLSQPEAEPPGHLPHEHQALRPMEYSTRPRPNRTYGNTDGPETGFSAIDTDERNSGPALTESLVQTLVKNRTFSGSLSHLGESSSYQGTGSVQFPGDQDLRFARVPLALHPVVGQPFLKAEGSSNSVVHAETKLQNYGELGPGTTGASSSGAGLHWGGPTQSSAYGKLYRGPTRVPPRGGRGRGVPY
T1 sequence (O75909 whole entry partner, the tested form may be a part): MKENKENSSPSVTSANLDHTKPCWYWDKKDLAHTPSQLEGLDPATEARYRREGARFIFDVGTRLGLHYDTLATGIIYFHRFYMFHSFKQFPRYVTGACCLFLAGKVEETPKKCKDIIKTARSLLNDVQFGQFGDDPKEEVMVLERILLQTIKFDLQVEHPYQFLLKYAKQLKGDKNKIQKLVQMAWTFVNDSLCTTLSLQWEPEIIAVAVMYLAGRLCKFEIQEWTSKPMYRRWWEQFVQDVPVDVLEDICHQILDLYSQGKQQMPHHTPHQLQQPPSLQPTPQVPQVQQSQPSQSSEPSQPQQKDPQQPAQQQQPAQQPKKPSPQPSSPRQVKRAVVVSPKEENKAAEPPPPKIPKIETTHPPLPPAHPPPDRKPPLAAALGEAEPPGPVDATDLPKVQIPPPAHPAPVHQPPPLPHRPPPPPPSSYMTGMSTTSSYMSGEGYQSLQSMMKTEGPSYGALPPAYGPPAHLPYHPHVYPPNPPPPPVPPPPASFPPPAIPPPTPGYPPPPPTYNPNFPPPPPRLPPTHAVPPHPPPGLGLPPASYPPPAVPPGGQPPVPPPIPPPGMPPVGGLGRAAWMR

SMILES: CN(C)C/C=C/C(=O)Nc1ccc(C(=O)Nc2cccc(Nc3ncc(Cl)c(-c4c[nH]c5ccccc45)n3)c2)cc1 [THZ1]
- IC50 [1]: < 200 nM

SMILES: CC#CC(=O)Nc1ccc2c(N3CC[C@@H](Nc4ncc(Br)cn4)C3)nccc2c1 [Example 33, (R)—N-(1-(3-((5-bromopyrimidin-2-yl)amino)pyrrolidin-1-yl)isoquinolin-6-yl)but-2-ynamide]
- IC50 [2]: ≤ 100 nM

SMILES: C=CC(=O)N(C)c1ccc2c(N3CC[C@@H](Nc4ncc(C#N)cn4)C3)nc(C3=CCN(C)CC3)cc2c1 [Example 42, (R)—N-(1-(3-((5-cyanopyrimidin-2-yl)amino)pyrrolidin-1-yl)-3-(1-methyl-1,2,3,6-tetrahydropyridin-4-yl)isoquinolin-6-yl)-N-methylacrylamide]
- IC50 [2]: ≤ 100 nM

Continued, values first:

- IC50 [2]: ≤ 100 nM
SMILES: C=CC(=O)N(C)c1ccc2c(N3CC[C@@H](Nc4ncc(C#N)cn4)C3)nc(N3CCN(C)CC3)nc2c1 [Example 41, (R)—N-(4-(3-((5-cyanopyrimidin-2-yl)amino)pyrrolidin-1-yl)-2-(4-methylpiperazin-1-yl)quinazolin-7-yl)-N-methylacrylamide]

- IC50 [2]: ≤ 100 nM
SMILES: C=CC(=O)N(C)c1ccc2c(N3CC[C@@H](Nc4ncc(Br)cn4)C3)nc(C)nc2c1 [Example 40, (R)—N-(4-(3-((5-bromopyrimidin-2-yl)amino)pyrrolidin-1-yl)-2-methylquinazolin-7-yl)-N-methylacrylamide]

- IC50 [2]: ≤ 100 nM
SMILES: C=CC(=O)N(C)c1ccc2c(N3CC[C@@H](Nc4ncc(C#N)cn4)C3)nc(C)nc2c1 [Example 39, (R)—N-(4-(3-((5-cyanopyrimidin-2-yl)amino)pyrrolidin-1-yl)-2-methylquinazolin-7-yl)-N-methylacrylamide]

— US20220388990A1, “INHIBITORS OF CYCLIN-DEPENDENT KINASES” (Kinnate Biopharma Inc., priority 2019, published 2022)
